Experiment [1] can be described thus: viability of PTEN-deleted HCT116 cells – cell-based, HCT116 PTEN knockout, dose response (AID 1047).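 Note: HCT116 colon tumor cells with PTEN knocked out; cells exposed to compound for 60 hours before readout; potency for loss of cell viability measured by luminescence.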 It is filed as functional.
The nature of experiment [2]: viability of HCT116 lacking mutant beta-catenin – cell-based, human colon tumor, dose response (AID 1045).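 Note: HCT116 colon tumor cells with beta catenin knocked out; cells exposed to compound for 60 hours.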 The experiment is classed as functional.
Experiment [3] is described as follows: NIH-3T3 fibroblast cytotoxicity, dose response, cytotoxicity control, cell-based, fluorescence, Alamar Blue, secondary assay (AID 2327).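 Note: NIH-3T3 mouse fibroblasts cultured with fluconazole at 8 µg/mL.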 The experiment is classed as functional. For orientation: The colour change of resazurin is a common sign of viable cells or microbes.
Experiment [4] relates to Streptococcus sp. 'group A'. In words: Streptococcus pyogenes SK(-)GAS viability under kanamycin – luminescence, BacTiterGlo, confirmation, counter-screen for streptokinase expression inhibitor project, dose response (AID 1900). It is filed as functional, organism-based.
Experiment [5] is described as follows: fluconazole-exposed Candida albicans growth modulators – fluorescence, retest, confirmation (AID 2467). It is filed as functional, cell-based.
Experiment [6] concerns Streptococcus. Nature of the experiment: GAS UMAA2166 growth inhibition – luminescence, BacTiterGlo, counter-screen for streptokinase expression inhibitor project, dose response (AID 1915).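 Note: potency for reduction of bacterial viability or growth.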 The experiment is classed as functional, organism-based. For orientation: A counterscreen serves to expose hits that act by an unwanted route or on another target.
The target of experiment [7] is FAD-linked sulfhydryl oxidase ALR (Homo sapiens, UniProt P55789). Nature of the experiment: ALR-catalysed DTT oxidation blockers – biochemical, H2O2 detection, luminescence, cherry-pick, dose response (AID 493248).
Experiment [8] deals with T1, Polyadenylate-binding protein 1 (Homo sapiens, UniProt P11940). In words: MLLE binding blockers, Cy5 peptide tracer – biochemical, fluorescence polarization, Cy5-PAM2 peptide, secondary, miRNA deadenylation inhibitor project, dose response (AID 602260). As to conditions: read-out: IC50_Mean. The experiment is classed as functional.
Experiment [9] has as its target T1, Polyadenylate-binding protein 1. Nature of the experiment: MLLE domain peptide-binding blockers, IC50 – biochemical, fluorescence polarization, FITC-PAM2 peptide, dose response (AID 602259). The experiment is classed as functional. As to conditions: read-out: IC50_Mean. In general terms: Fluorescence polarisation rises when a labelled molecule tumbles more slowly, as on binding a larger partner.

The target of experiment [10] is T2, Ubiquitin-conjugating enzyme E2 N (Homo sapiens, UniProt P61088).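 Note: Dose-response confirmation in a TR-FRET assay detecting UBC13-driven polyubiquitin chain formation, inhibition measured.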
T2 sequence (P61088 whole entry): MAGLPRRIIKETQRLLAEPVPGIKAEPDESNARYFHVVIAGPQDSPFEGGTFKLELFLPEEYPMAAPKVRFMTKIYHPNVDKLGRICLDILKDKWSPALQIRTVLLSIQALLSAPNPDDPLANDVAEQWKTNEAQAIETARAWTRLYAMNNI
It is filed as functional.

Experiment [11] deals with T3, Streptokinase A (Streptococcus pyogenes serotype M1, UniProt P10520).
T3 sequence (P10520 whole entry): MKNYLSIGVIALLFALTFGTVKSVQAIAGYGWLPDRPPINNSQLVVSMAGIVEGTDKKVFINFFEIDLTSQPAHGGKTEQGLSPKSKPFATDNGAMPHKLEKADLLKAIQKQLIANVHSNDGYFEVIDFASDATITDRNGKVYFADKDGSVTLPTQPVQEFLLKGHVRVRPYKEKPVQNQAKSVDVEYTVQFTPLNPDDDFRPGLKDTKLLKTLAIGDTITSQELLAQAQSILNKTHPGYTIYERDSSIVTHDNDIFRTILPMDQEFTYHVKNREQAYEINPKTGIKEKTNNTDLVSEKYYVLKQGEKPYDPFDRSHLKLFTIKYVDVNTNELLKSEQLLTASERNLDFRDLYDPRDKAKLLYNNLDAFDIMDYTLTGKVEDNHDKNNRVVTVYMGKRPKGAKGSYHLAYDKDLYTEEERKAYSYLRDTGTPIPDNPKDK
In words: viability-normalized secreted streptokinase activity reduction – plasminogen activation absorbance, OD405, dose response (AID 1914).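 Note: secreted streptokinase activity via plasminogen activation per viability signal from cell pellet.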 It is filed as functional, Streptococcus pyogenes M1 GAS.

The nature of experiment [12]: non-specific 3'UTR reporter inhibition in Clone20-Shn3RL – cell-based, Renilla luciferase, cherry-picked, counter-screen for Shn3 inhibitor project, dose response (AID 624133). The experiment is classed as functional.
The subject of experiment [13] is H4. In words: Luminescence Cell-Based Dose Response HTS to Identify Activators of 5'UTR Stem-Loop Driven Prion Protein mRNA Translation in H4 Neuroglioblastoma Cells. [Related pubchem assays: 1829 (Project Summary), 1814 (Primary HTS)]. As to conditions: Homo sapiens. It is filed as functional.
Experiment [14] can be described thus: Luminescence Cell-Based Dose Response HTS to Identify Activators of Luciferase Translation or Activity in H4 […] Cells. [Related pubchem assays: 1829 (Project Summary), 1814 (Primary HTS)]. The experiment is classed as functional.
A short description of experiment [15]: Luminescence Cell-Based Dose Confirmation HTS to Identify Activators of 5'UTR Stem-Loop Driven Alpha-Synuclein mRNA Translation in H4 Neuroglioblastoma Cells. [Related pubchem assays: 1829 (Project Summary), 1814 (Primary HTS)]. The experiment is classed as functional.
Experiment [16] can be described thus: P. falciparum Dd2 growth inhibitors, dose response, SYBR Green, cherry-picked samples (AID 1159567). It is filed as functional, cell-based.
Experiment [17] is described as follows: alpha-synuclein stem-loop luciferase translation blockers – H4 neuroglioma cells, luminescence, confirmation (AID 1988). The experiment is classed as functional, cell-based.
Experiment [18] is described as follows: Luminescence Cell-Based Dose Response HTS to Identify Inhibitors of 5'UTR Stem-Loop Driven Prion Protein mRNA Translation in H4 Neuroglioblastoma Cells. [Related pubchem assays: 1827 (Project Summary), 1813 (Primary HTS)]. It is filed as functional.
Experiment [19] in a line: luciferase reporter signal suppression in cells – H4 neuroglioma cells, luminescence, dose response (AID 1990). The experiment is classed as functional, cell-based.

Molecules are shown by their SMILES. Active and inactive are the calls of the source.

By EC50 is commonly meant the midpoint of the concentration-response curve. For orientation: AC50 means the concentration at which the activity in the assay is half-maximal.

Sequence of FAD-linked sulfhydryl oxidase ALR (P55789 whole entry): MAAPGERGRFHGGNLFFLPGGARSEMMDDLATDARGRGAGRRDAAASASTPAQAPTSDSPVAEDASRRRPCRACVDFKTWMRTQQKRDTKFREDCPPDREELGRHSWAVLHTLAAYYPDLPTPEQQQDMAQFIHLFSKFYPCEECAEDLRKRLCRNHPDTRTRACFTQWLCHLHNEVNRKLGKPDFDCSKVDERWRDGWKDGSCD
T1 sequence (P11940 whole entry, the tested form may be a part): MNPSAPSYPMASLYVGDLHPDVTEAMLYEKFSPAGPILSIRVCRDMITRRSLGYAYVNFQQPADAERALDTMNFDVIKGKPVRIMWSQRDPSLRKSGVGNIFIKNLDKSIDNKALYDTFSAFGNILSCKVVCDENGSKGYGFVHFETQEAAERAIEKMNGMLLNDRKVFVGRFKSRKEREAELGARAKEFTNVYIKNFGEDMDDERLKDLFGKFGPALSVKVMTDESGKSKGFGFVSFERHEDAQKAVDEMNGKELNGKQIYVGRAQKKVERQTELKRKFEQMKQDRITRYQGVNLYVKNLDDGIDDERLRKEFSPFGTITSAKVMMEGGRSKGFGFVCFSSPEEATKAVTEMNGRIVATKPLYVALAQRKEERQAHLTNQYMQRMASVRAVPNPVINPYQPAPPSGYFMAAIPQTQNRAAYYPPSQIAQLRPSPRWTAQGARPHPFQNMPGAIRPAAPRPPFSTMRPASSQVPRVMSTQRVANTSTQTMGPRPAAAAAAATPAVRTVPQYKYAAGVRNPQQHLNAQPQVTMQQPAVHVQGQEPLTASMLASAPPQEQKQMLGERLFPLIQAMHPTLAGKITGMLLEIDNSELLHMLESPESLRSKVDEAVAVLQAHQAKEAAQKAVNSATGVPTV

With `O=C1/C(=C\c2cccnc2)CCc2ccccc21`, the 50% effective concentration (EC50) in [1] was 15.4 µM (active); in experiment [2] it was 14.5 µM (active).

Consider `Cc1ccc(NC(=S)c2nc3ccccc3[nH]2)cc1`, for which the EC50 in [3] is > 160 µM (inactive); in experiment [4], 3.7 µM (active); in experiment [1], 26.3 µM (active); in experiment [5], > 38 µM (not active); in experiment [6] it was 7.64 µM (active); in experiment [2], 19.2 µM (active).

In the case of `N#Cc1cnn(-c2ccccc2)c1NC(=O)CN1CCN(c2ccccc2)CC1`, in experiment [7], the half-maximal activity concentration (AC50) was 13.4 µM (active).

For the compound `CCOC(=O)c1nc(Nc2ccc(C)cc2)c2ccccc2n1`, the IC50 in experiment [8] and in experiment [9] was > 66 µM (inactive) each time.

Turning to `CCOC(=O)c1c(CN2CCN(c3ccccc3)CC2)oc2ccc(O)cc12`, the IC50 in experiment [10] was > 20 µM (inactive).

Turning to `C=CCn1c(SCC(=O)c2c(N)n(C)c(=O)n(C)c2=O)nc2sc(CC)cc2c1=O`, the EC50 was 26.2 µM (active) in [1] and 23.3 µM (active) in experiment [2].

Turning to `COc1ccc(NC(=O)CSc2nnc(-c3ccccc3C)n2N)cc1`, the IC50 in [8] and in experiment [9] was > 66 µM (inactive) in each case.

`COc1ccc2oc(C(=O)c3ccccc3)c(NC(=O)CN3CCN(C)CC3)c2c1`: the 50% effective concentration (EC50) in experiment [1] was 15.9 µM (active); in experiment [2], 14.1 µM (active).

In the case of `O=C(c1cccc(F)c1)N1CCC(c2nc3ccccc3s2)CC1`, the AC50 in [7] is 0.433 µM (active).

Take `O=C(c1oc2ccccc2c1CSCc1ccccc1)N1CCN(c2ncccn2)CC1`: the IC50 in experiment [8] was > 66 µM (inactive); in experiment [9], 38.5 µM (inactive).

In the case of `CCOC(=O)c1c(NC(=O)C2Cc3ccccc3C(=O)O2)sc2c1CCCC2` (stereo unspecified), the figures for the EC50 in experiment [3] and in experiment [5] were > 160 µM (inactive) and > 38 µM (not active), respectively.

Regarding `Cc1cc(C)n(N=C(S)NC2CCCC2)c(=O)c1C#N`, the IC50 in experiment [8] and in [9] was > 66 µM (inactive) each time.

As to `COc1cc(Nc2c([N+](=O)[O-])nn(-c3ccc4c(c3)OCCO4)[n+]2[O-])cc(OC)c1`, the EC50 in experiment [11] was > 150 µM (not active); in experiment [4] it was 2.35 µM (active); in [1] it was 2.29 µM (active); in [6], 19 µM (active); in experiment [2], 1.78 µM (active).

As to `Cc1ccc2[nH]c(CCc3ccc(N)cc3)nc2c1`, the AC50 in [7] is 0.018 µM (active).

Regarding `CC(=O)n1cc([C@H]2C=C(C(=O)Nc3ccccc3)O[C@@H](OCCCCO)C2)c2ccccc21`, the IC50 in experiment [10] was > 20 µM (inactive).

For `COc1cccc(N2C(=O)CC(N3CCc4ccccc43)C2=O)c1` (stereo unspecified), the AC50 in experiment [7] was 1.21 µM (active).

As to `Cc1nn(C)c(C(=O)NC(=S)Nc2ccc([N+](=O)[O-])cc2)c1Cl`, the IC50 in experiment [8] and in experiment [9] was > 66 µM (inactive) each time.

In the case of `CC(Cc1cccs1)NC(=O)Nc1ccc(F)cc1` (stereo unspecified), the AC50 in experiment [12] is 28.8 µM (active).

`CC(C(=O)NC1C(=O)N2C(C(=O)O)=C(CSc3nnnn3C)CSC12)n1cc(Cl)cn1` (stereo unspecified): the IC50 in experiment [8] and in experiment [9] was > 66 µM (inactive) each time. The EC50 in experiment [4] is 0.161 µM (active); in [6], 0.343 µM (active).

As to `CCn1c(C)nc2cc(C(=O)NN=C(S)Nc3ccc(Cl)cc3Cl)ccc21`, the EC50 in [3] is > 160 µM (inactive); in experiment [5] it was 6.98 µM (active).

On to `COc1cccc(C(=O)NC2=NCCS2)c1OC`, for which the IC50 in [8] and in [9] was > 66 µM (inactive) each time.

For `O=C(CSc1nc(-c2ccccc2)cs1)Nc1nccs1`, the EC50 was > 160 µM (inactive) in experiment [3] and > 38 µM (not active) in experiment [5].

Turning to `O=C(NNC(=O)c1ccccc1O)c1ccc(Cl)c(S(=O)(=O)N2CCCCC2)c1`, the AC50 in experiment [7] is 56.4 µM (active).

For the compound `OCCNc1nc(Nc2cc(Cl)ccc2OC2CCCC2)nc(N2CCCC2)n1`, the IC50 in [10] was > 20 µM (inactive).

With `OCC(O)CN=C(S)NC1CCCCC1` (stereo unspecified), the IC50 in [8] and in [9] was > 66 µM (inactive) each time.

For `CC[C@@H](C)[C@@H]1CN([C@@H](CN2CCC[C@H]2CN2C(N)=NC[C@@H]2Cc2ccccc2)C(C)C)C(=N)N1CCCC1CCCC1`, the IC50 in [10] is > 20 µM (inactive).

As for `CC(C)NC(=S)N/N=C/c1ccc(C(C)(C)C)cc1`, the values for the EC50 in [3] and in [5] were 91.3 µM (inconclusive) and > 38 µM (not active), respectively.

For `CC(C)Oc1ccc(Cl)cc1Nc1nc(NCCO)nc(N2CCCC2)n1`, the IC50 in experiment [10] was > 20 µM (inactive).

With `O=C(O/N=C1/CCSc2ccccc21)c1ccc(F)cc1`, the EC50 was 30.1 µM (active) in [3] and > 38 µM (not active) in experiment [5].

Regarding `CCN(CC)c1ccc(/C=N/NC(=O)Nc2nonc2N)cc1`, the EC50 in [13] is 30.9 µM (active); in [14] it was 7.18 µM (active); in experiment [15] it was 98.8 µM (active). Also, the AC50 in experiment [7] was 1.38 µM (active).

Consider `CC(C)C[C@H](NC(=O)c1[nH]cnc1C(=O)N[C@@H](CCCCN)C(=O)OC(C)(C)C)C(=O)OC(C)(C)C`, for which the IC50 in [10] was > 20 µM (inactive).

For the compound `CN(C)c1ccc(/C=N/NC(=O)CCc2c[nH]c3ccccc23)cc1`, the AC50 in [7] was 2.11 µM (active).

With `CC(C)(C)[S@@+]([O-])N1Cc2cc(C(=O)NCCN3CCCC3)nc(-c3cccc(-c4ccc(C#N)cc4)c3)c2[C@H]1CCO`, the concentration at half-maximal activity (AC50) in [16] is 4.66 µM (active).

On to `COc1ccc2c3c([nH]c2c1)[C@@H](CO)N(C(=O)c1cccc(F)c1)CC31CCN(C(=O)c2ccccc2)CC1`, for which the AC50 in experiment [16] was 5.71 µM (active).

Turning to `COc1ccccc1NC(=O)N1CCCCN2[C@@H](CO)[C@H](c3ccc(C#CC4CC4)cc3)[C@@H]2C1`, in [16], the AC50 was 5.48 µM (active).

In the case of `C[C@@H]1CN([C@H](C)CO)C(=O)c2cc(C#Cc3ccccc3F)cnc2O[C@H]1CN(C)C(=O)c1ccc2c(c1)OCO2`, the AC50 in [16] was 3.31 µM (active).

As to `COc1ccc(-c2n(C)c3ccccc3[n+]2CC(=O)OC2CC(C)CCC2C(C)C)cc1` (stereo unspecified), the EC50 in experiment [3] is 17.4 µM (inconclusive); in [17], 8.61 µM (active); in [18], 10.9 µM (active); in [19], 8.73 µM (active); in experiment [5], 0.25 µM (active).

These data come from ChEMBL document CHEMBL1201862, “PubChem BioAssay data set” (2004).
